pIC50: −log10 of the molar value.
How the values were obtained:
CDK4 = molecular target: T1, CDK4 (Homo sapiens, UniProt P11802); test: In vitro kinase inhibition IC50, luminescence (ADP Glo), retinoblastoma substrate; format: biochemical; settings: read-out: CDK4/D1 IC50
T1 construct: purchased Invitrogen PR8064A
Procedure, shortened: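 Inhibition of CDK4 was quantified by ADP Glo luminescence with retinoblastoma as substrate. Reactions held 5 nM kinase, 1 μM retinoblastoma and 25 μM ATP and ran 2H at room temperature. A Synergy Neo reader took signals 15 min and 45 min after detection reagent, and percent inhibition was fitted to a four-parameter logistic model in XLfit to obtain IC50.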

CDK6 = molecular target: T2, CDK6 (Homo sapiens, UniProt Q00534); test: as above; format: biochemical; settings: read-out: CDK6/D1 IC50
T2 construct: purchased Invitrogen PR8422B
Procedure, shortened: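 IC50 derived by four-parameter logistic fit of percent inhibition, read as ADP-Glo luminescence. Reactions: 5 nM CDK6, 1 μM retinoblastoma, 25 μM ATP, test compound 0.1–200 nM final, 2 h at room temperature.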

FMS kinase = molecular target: T3, FMS kinase (Homo sapiens, UniProt P07333); test: LanthaScreen Eu Kinase Binding Assay (ATP, fluorescent-PolyGT substrate); format: biochemical
T3 construct: purchased Invitrogen (Life Technologies)
Protocol: IC50 values of compounds against FMS kinase were determined by LanthaScreen™ Eu Kinase Binding Assay at Invitrogen (Life Technologies Grand Island, N.Y.) where total reaction volume was 10 μL in low-volume 384-well plates (#4511, Corning). Serially diluted compounds (3-fold) were incubated with kinase (1.25 nM) for 10 min, following which a mixture of ATP (10 μM) (#A1852, Sigma, St-Louis, Mo.) and fluorescent-PolyGT substrate (200 nM) (#PV3610, Invitrogen, Life Technologies Grand Island, N.Y.) was added and incubated in dark at room temperature for 1H. After 1H, 10 μL stop solution containing Terbium labeled antibody (4 nM) (#PV3529, Invitrogen, Life Technologies Grand Island, N.Y.) and EDTA (#E5134, Sigma, St-Louis, Mo.) (20 mM) in TR-FRET dilution buffer (#PV3574, Invitrogen, Life Technologies Grand Island, N.Y.) was added. Readings were taken in a Synergy Neo Plate reader (BioTek, Winooski) at single excitation of 340 nm and Dual emission at 495 nm and 520 nm respectively.
The following equations were used for LanthaScreen Eu Kinase Binding Assay Data Analysis. Percent inhibition (100-% activity) was fitted to the “four-parameter logistic model” in XLfit for determination of IC50 values.

PI3Kδ kinase = molecular target: T4, PI3Kδ kinase (Homo sapiens, UniProt O00329); test: PI3Kδ kinase assay (ADP-Glo, Reaction Biology); format: biochemical
T4 construct: purchased Reaction Biology Corporation (assay service)
Protocol: IC50 values of compounds against the PI3Kδ kinase were determined by an assay performed by Reaction Biology Corporation (Malvern, Pa.). Briefly, this assay was conducted in buffer (Tris-HCl 40 mM (pH7.5), Orthovanadate 3 mM, MgCl2 20 mM, DTT 2 mM, CHAPS 0.05%, DMSO 1%). PI3Kδ kinase was added to the reaction solution and mixed gently. The test compounds in 100% DMSO (at specific solutions) were mixed with the kinase reaction mixture to achieve the final compounds at pre-defined concentrations (e.g., range −0.5 nM to 100 μM) by Acoustic technology (Echo550; nanoliter range). After incubating for 10 min at room temp, ATP was added into the reaction mixture to initiate the reaction followed by a 30-min incubation at 30° C. After quenching the reaction with ADP-Glo reagent, the plates were incubated for 40 min. The Detection Mixture was added, and the plate was incubated for an additional 30 min. At the end of incubation, luminescence was measured. For data analysis, the luminescence was converted into μM ADP production based on ADP standard curves. The nonlinear regression to obtain the standard curve and IC50 values was performed using GraphPad Prism (GraphPad Software, Inc., San Diego, Calif.).

[1] = test system: DU4475 breast carcinoma cells; test: Cancer cell proliferation assay, single agent (cell viability); format: cell-based; settings: Homo sapiens, DU-4475; Table 4; Rb negative; treatment 144 Hr with medium change at 72 Hr; Cell Titer-Glo or resazurin
Procedure, shortened: (§1)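 Viability read by resazurin or CellTiter-Glo after 24 h treatment (BT-549) or 144 h with a 72 h medium change (MCF-7, DU4475). Compounds tested at 7–9 concentrations, e.g. 1.1 nM–10 μM, added the day after seeding; IC50 by nonlinear sigmoidal regression.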

[2] = test system: MCF-7 breast adenocarcinoma cells; test: as above; format: cell-based; settings: Homo sapiens, MCF7, Table 4; Rb positive; treatment 144 Hr with medium change at 72 Hr; Cell Titer-Glo or resazurin
Procedure, shortened: as §1

T1 sequence (P11802 whole entry): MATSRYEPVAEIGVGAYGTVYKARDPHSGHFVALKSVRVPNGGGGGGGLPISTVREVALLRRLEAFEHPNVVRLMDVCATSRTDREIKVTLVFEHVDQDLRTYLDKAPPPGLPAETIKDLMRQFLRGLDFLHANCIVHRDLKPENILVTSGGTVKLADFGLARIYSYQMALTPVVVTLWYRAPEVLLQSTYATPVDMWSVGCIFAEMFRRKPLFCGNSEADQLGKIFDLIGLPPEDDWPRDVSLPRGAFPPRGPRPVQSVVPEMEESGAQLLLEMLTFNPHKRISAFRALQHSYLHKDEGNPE
T1 sequence (P24385 whole entry partner): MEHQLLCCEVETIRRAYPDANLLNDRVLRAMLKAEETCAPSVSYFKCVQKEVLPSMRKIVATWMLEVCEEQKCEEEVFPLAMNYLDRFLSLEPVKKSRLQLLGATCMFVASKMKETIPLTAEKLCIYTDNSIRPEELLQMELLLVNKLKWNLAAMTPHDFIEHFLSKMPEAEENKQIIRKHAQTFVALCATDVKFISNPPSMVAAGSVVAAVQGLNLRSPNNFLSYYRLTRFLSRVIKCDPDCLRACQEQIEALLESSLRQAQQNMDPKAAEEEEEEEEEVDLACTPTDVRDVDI
T2 sequence (Q00534 whole entry): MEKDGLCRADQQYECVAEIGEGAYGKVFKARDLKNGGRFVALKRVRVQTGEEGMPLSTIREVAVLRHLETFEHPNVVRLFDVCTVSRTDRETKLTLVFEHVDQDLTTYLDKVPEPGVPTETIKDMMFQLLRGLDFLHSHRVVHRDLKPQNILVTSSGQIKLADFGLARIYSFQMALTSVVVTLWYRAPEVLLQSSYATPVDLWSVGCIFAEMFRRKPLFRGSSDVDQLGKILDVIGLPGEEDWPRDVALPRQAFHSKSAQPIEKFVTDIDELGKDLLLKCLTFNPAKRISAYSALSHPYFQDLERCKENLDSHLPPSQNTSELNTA
T2 sequence (P24385 whole entry partner): as the sequence (P24385 whole entry partner) above
T4 sequence (O00329 whole entry): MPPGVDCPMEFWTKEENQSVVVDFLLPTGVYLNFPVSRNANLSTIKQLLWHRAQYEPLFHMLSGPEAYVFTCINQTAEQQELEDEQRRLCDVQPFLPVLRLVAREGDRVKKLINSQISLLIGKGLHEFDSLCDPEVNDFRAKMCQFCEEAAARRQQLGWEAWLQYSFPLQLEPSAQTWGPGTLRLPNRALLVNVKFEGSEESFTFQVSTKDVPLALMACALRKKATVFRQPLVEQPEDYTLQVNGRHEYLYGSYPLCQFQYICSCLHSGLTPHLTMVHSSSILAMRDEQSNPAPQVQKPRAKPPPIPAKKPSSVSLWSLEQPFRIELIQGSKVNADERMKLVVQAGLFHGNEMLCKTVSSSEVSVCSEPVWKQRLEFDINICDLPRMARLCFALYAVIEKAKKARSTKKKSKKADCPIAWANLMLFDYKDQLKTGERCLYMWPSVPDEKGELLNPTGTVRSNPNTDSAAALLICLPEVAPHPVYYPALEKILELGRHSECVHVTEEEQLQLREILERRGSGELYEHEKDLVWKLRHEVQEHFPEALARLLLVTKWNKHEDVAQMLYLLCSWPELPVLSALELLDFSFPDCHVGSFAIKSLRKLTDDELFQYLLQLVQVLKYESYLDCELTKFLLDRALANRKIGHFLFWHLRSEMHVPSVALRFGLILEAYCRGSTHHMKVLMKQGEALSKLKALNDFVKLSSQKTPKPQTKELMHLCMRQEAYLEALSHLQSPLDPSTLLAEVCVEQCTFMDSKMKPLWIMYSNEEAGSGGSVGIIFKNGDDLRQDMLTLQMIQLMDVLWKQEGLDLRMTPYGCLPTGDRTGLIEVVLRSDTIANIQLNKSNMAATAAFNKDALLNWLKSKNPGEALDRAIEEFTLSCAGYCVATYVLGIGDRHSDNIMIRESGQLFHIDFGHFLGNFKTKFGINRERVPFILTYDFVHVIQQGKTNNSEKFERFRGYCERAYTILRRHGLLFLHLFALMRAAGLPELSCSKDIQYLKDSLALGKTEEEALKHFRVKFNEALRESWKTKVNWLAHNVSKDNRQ
T4 sequence (P27986 whole entry partner): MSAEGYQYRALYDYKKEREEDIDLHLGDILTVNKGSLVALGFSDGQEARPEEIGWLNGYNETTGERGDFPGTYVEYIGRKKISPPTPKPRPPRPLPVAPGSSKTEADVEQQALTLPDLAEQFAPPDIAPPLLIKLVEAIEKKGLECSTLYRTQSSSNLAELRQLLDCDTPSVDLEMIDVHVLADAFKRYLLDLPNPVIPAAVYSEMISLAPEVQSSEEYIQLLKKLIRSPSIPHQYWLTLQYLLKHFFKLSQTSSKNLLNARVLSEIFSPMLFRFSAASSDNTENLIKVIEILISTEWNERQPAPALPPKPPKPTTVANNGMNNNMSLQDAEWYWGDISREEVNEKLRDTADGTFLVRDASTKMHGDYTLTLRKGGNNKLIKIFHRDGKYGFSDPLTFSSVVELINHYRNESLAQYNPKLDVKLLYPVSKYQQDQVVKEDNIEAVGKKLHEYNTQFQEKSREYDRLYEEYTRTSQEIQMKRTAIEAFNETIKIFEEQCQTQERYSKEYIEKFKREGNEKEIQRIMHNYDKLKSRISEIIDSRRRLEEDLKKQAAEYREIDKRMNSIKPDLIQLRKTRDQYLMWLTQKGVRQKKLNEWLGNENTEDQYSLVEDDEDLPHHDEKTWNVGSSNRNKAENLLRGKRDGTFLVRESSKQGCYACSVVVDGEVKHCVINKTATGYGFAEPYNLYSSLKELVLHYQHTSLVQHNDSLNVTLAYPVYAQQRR
T3 sequence (P07333 20-972): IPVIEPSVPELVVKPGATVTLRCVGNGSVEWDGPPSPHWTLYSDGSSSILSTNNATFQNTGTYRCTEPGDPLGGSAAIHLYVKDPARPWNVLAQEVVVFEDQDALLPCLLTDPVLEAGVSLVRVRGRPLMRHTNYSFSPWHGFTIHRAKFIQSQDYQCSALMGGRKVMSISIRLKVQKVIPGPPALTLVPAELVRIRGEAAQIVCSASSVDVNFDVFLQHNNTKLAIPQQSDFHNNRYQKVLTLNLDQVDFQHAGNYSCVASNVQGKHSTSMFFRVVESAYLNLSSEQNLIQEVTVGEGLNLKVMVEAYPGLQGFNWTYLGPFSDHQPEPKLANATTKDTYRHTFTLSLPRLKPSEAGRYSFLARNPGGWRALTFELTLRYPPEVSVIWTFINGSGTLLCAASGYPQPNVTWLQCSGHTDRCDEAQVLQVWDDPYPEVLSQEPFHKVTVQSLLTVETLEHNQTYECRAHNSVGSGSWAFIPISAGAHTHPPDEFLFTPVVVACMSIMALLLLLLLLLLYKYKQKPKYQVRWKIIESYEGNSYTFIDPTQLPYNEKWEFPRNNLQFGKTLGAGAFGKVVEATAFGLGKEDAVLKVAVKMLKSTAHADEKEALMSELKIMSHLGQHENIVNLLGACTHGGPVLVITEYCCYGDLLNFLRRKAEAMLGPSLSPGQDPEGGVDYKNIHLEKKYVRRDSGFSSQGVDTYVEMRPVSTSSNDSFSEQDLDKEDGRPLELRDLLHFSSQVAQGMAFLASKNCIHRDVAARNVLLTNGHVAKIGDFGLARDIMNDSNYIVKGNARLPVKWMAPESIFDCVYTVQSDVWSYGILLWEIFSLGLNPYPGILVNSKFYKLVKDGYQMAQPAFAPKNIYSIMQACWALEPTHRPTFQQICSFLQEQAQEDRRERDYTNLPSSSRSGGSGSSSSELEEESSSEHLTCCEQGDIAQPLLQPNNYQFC

pIC50 (CDK4)	pIC50 (CDK6)	pIC50 (FMS kinase)	pIC50 (PI3Kδ kinase)	pIC50 [1]	pIC50 [2]	Structure (SMILES)
8.19	8.05	8.28	5.91	–	6.50	CN1CCc2ccc(Nc3ncc4cc(C#N)c(=O)n(C5CCCC5)c4n3)cc2C1 [Compound No. 34, 8-cyclopentyl-2-((2-methyl-1,2,3,4-tetrahydroisoquinolin-7-yl)amino)-7-oxo-7,8-dihydropyrido[2,3-d]pyrimidine-6-carbonitrile]
8.19	8.60	8.24	7.19	5.65	6.45	N#Cc1cc2cnc(Nc3ccc(C4CCNCC4)cc3)nc2n(C2CCCC2)c1=O [Compound No. 37, 8-cyclopentyl-7-oxo-2-((4-(piperidin-4-yl)phenyl)amino)-7,8-dihydropyrido[2,3-d]pyrimidine-6-carbonitrile]
8.82	9.00	8.26	6.42	–	6.34	CN1CCc2cc(Nc3ncc4cc(C#N)c(=O)n(C5CCCC5)c4n3)ccc2C1 [Compound No. 38, 8-cyclopentyl-2-((2-methyl-1,2,3,4-tetrahydroisoquinolin-6-yl)amino)-7-oxo-7,8-dihydropyrido[2,3-d]pyrimidine-6-carbonitrile]
8.30	8.52	8.82	6.74	–	6.74	N#Cc1cc2cnc(Nc3ccc(C4CCNCC4)c(F)c3)nc2n(C2CCCC2)c1=O [Compound No. 43, 8-cyclopentyl-2-((3-fluoro-4-(piperidin-4-yl)phenyl)amino)-7-oxo-7,8-dihydropyrido[2,3-d]pyrimidine-6-carbonitrile]
7.82	8.30	8.60	6.18	–	6.56	CN1CCC(c2ccc(Nc3ncc4cc(C#N)c(=O)n(C5CCCC5)c4n3)cc2F)CC1 [Compound No. 46, 8-cyclopentyl-2-((3-fluoro-4-(1-methylpiperidin-4-yl)phenyl)amino)-7-oxo-7,8-dihydropyrido[2,3-d]pyrimidine-6-carbonitrile]

The remaining lines, values behind:

Structure (SMILES)	pIC50 (CDK4)	pIC50 (CDK6)	pIC50 (FMS kinase)	pIC50 (PI3Kδ kinase)	pIC50 [1]	pIC50 [2]
CN1CCN(c2ccc(Nc3ncc4cc(C#N)c(=O)n(C5CCCC5)c4n3)cc2CO)CC1 [Compound No. 10, 8-cyclopentyl-2-((3-(hydroxymethyl)-4-(4-methylpiperazin-1-yl)phenyl)amino)-7-oxo-7,8-dihydropyrido[2,3-d]pyrimidine-6-carbonitrile]	9.00	9.00	> 9.00	6.51	5.79	7.05
CN(C)Cc1c[nH]c2cc(Nc3ncc4cc(C#N)c(=O)n(C5CCCC5)c4n3)ccc12 [Compound No. 21, 8-cyclopentyl-2-((3-((dimethylamino)methyl)-1H-indol-6-yl)amino)-7-oxo-7,8-dihydropyrido[2,3-d]pyrimidine-6-carbonitrile]	7.96	8.70	8.60	6.00	–	6.62
CN(C)CC1Cc2ccc(Nc3ncc4cc(C#N)c(=O)n(C5CCCC5)c4n3)cc2C(=O)N1 (stereo not drawn) [Compound No. 22, 8-cyclopentyl-2-((3-((dimethylamino)methyl)-1-oxo-1,2,3,4-tetrahydroisoquinolin-7-yl)amino)-7-oxo-7,8-dihydropyrido[2,3-d]pyrimidine-6-carbonitrile]	< 6.70	7.19	> 9.00	7.37	–	5.99
CN1CCN(c2ccc(Nc3ncc4cc(C#N)c(=O)n(Cc5ccccc5)c4n3)cc2)CC1 [Compound No. 32, 8-benzyl-2-((4-(4-methylpiperazin-1-yl)phenyl)amino)-7-oxo-7,8-dihydropyrido[2,3-d]pyrimidine-6-carbonitrile]	9.00	8.15	8.46	6.60	–	5.70
CC(c1ccccc1)n1c(=O)c(C#N)cc2cnc(Nc3ccc(N4CCN(C)CC4)cc3)nc21 (stereo not drawn) [Compound No. 35, 2-((4-(4-methylpiperazin-1-yl)phenyl)amino)-7-oxo-8-(1-phenylethyl)-7,8-dihydropyrido[2,3-d]pyrimidine-6-carbonitrile]	< 6.70	7.04	8.15	6.13	–	5.41
CN1CCN(c2ccc(Nc3ncc4cc(C#N)c(=O)n(C5CCCC5)c4n3)cc2F)CC1 [Compound No. 36, 8-cyclopentyl-2-((3-fluoro-4-(4-methylpiperazin-1-yl)phenyl)amino)-7-oxo-7,8-dihydropyrido[2,3-d]pyrimidine-6-carbonitrile]	9.00	9.00	8.19	5.99	–	6.50
CCN(CC)CCOc1ccc(Nc2ncc3cc(C#N)c(=O)n(C4CCCC4)c3n2)cc1 [Compound No. 41, 8-cyclopentyl-2-((4-(2-(diethylamino)ethoxy)phenyl)amino)-7-oxo-7,8-dihydropyrido[2,3-d]pyrimidine-6-carbonitrile]	8.26	9.00	> 9.00	6.39	–	6.79
N#Cc1cc2cnc(Nc3ccc(N4CCNCC4)cc3)nc2n(C2CCc3ccccc32)c1=O (stereo not drawn) [Compound No. 42, 8-(2,3-dihydro-1H-inden-1-yl)-7-oxo-2-((4-(piperazin-1-yl)phenyl)amino)-7,8-dihydropyrido[2,3-d]pyrimidine-6-carbonitrile]	7.24	7.92	8.40	6.19	–	6.15
CN(C)C1CCN(c2ccc(Nc3ncc4cc(C#N)c(=O)n(C5CCCC5)c4n3)cc2F)CC1 [Compound No. 44, 8-cyclopentyl-2-((4-(4-(dimethylamino)piperidin-1-yl)-3-fluorophenyl)amino)-7-oxo-7,8-dihydropyrido[2,3-d]pyrimidine-6-carbonitrile]	8.70	9.00	8.60	7.02	–	7.02
CC(C)N1CCc2cc(Nc3ncc4cc(C#N)c(=O)n(C5CCCC5)c4n3)ccc2C1 [Compound No. 45, 8-cyclopentyl-2-((2-isopropyl-1,2,3,4-tetrahydroisoquinolin-6-yl)amino)-7-oxo-7,8-dihydropyrido[2,3-d]pyrimidine-6-carbonitrile]	8.35	7.72	8.70	6.31	–	6.37
CN(C)C1Cc2ccc(Nc3ncc4cc(C#N)c(=O)n(C5CCCC5)c4n3)cc2C1 (stereo not drawn) [Compound No. 47, 8-cyclopentyl-2-((2-(dimethylamino)-2,3-dihydro-1H-inden-5-yl)amino)-7-oxo-7,8-dihydropyrido[2,3-d]pyrimidine-6-carbonitrile]	8.02	8.40	8.60	6.46	–	6.46
N#Cc1cc2cnc(Nc3ccc(N4CCC(O)CC4)c(F)c3)nc2n(C2CCCC2)c1=O [Compound No. 49, 8-cyclopentyl-2-((3-fluoro-4-(4-hydroxypiperidin-1-yl)phenyl)amino)-7-oxo-7,8-dihydropyrido[2,3-d]pyrimidine-6-carbonitrile]	8.04	8.40	9.00	8.37	–	5.35
